Results taken from ChEMBL document CHEMBL1154040, “Synthesis and evaluation of novel F-18 labeled fluoroarylvaline derivatives: potential PET imaging agents for tumor detection” (Bioorg Med Chem Lett, 2009).

Assays:
[1] = test system: Lung; test: Biodistribution in S180 tumor-bearing KM mouse lung assessed per gram of tissue at 240 to 370 kBq, iv after 120 mins; format: ADME, organism-based; conditions: in vivo, 2 h
[2] = Ratio of drug level in S180 tumor to blood in KM mouse at 240 to 370 kBq, iv after 120 mins; format: ADME, organism-based; conditions: tumour, 2 h
[3] = Ratio of drug level in S180 tumor to brain KM mouse at 240 to 370 kBq, iv after 5 mins; format: ADME, organism-based; conditions: in vivo
[4] = test system: Brain; test: Biodistribution in S180 tumor-bearing KM mouse brain assessed per gram of tissue at 240 to 370 kBq, iv after 120 mins; format: ADME, organism-based; conditions: in vivo, 2 h
[5] = Ratio of drug level in S180 tumor to blood in KM mouse at 240 to 370 kBq, iv after 15mins; format: ADME, organism-based; conditions: tumour, 0.25 h
[6] = Ratio of drug level in S180 tumor to muscleKM mouse at 240 to 370 kBq, iv after 15 mins; format: ADME, organism-based, KM; conditions: in vivo, 0.25 h
[7] = Ratio of drug level in S180 tumor to blood in KM mouse at 240 to 370 kBq, iv after 60 mins; format: ADME, organism-based; conditions: tumour, 1 h
[8] = test system: Muscle tissue; test: Biodistribution in S180 tumor-bearing KM mouse muscle assessed per gram of tissue at 240 to 370 kBq, iv after 120 mins; format: ADME, organism-based; conditions: in vivo, 2 h
[9] = test system: Muscle tissue; test: Biodistribution in S180 tumor-bearing KM mouse muscle assessed per gram of tissue at 240 to 370 kBq, iv after 30 mins; format: ADME, organism-based; conditions: in vivo, 0.5 h
[10] = test system: Brain; test: Biodistribution in S180 tumor-bearing KM mouse brain assessed per gram of tissue at 240 to 370 kBq, iv after 15 mins; format: ADME, organism-based; conditions: in vivo, 0.25 h
[11] = test system: Heart; test: Biodistribution in S180 tumor-bearing KM mouse heart assessed per gram of tissue weight at 240 to 370 kBq, iv after 15 mins; format: ADME, organism-based; conditions: in vivo, 0.25 h
[12] = test system: Blood; test: Biodistribution in S180 tumor-bearing KM mouse blood assessed per gram of tissue weight at 240 to 370 kBq, iv after 30 mins; format: ADME, organism-based; conditions: in vivo, 0.5 h
[13] = Ratio of drug level in S180 tumor to brain KM mouse at 240 to 370 kBq, iv after 30 mins; format: ADME, organism-based; conditions: in vivo, 0.5 h
[14] = test system: Liver; test: Biodistribution in S180 tumor-bearing KM mouse liver assessed per gram of tissue at 240 to 370 kBq, iv after 30 mins; format: ADME, organism-based; conditions: in vivo, 0.5 h
[15] = test system: Heart; test: Biodistribution in S180 tumor-bearing KM mouse heart assessed per gram of tissue weight at 240 to 370 kBq, iv after 30 mins; format: ADME, organism-based; conditions: in vivo, 0.5 h
[16] = test system: Lung; test: Biodistribution in S180 tumor-bearing KM mouse lung assessed per gram of tissue at 240 to 370 kBq, iv after 30 mins; format: ADME, organism-based; conditions: in vivo, 0.5 h
[17] = Biodistribution in S180 tumor present in KM mouse assessed per gram of tissue at 240 to 370 kBq, iv after 60 mins; format: ADME, organism-based, Neoplasm; conditions: in vivo, 1 h
[18] = Ratio of drug level in S180 tumor to brain KM mouse at 240 to 370 kBq, iv after 120 mins; format: ADME, organism-based; conditions: in vivo, 2 h
[19] = test system: Liver; test: Biodistribution in S180 tumor-bearing KM mouse liver assessed per gram of tissue at 240 to 370 kBq, iv after 120 mins; format: ADME, organism-based; conditions: in vivo, 2 h
[20] = test system: Kidney; test: Biodistribution in S180 tumor-bearing KM mouse kidney assessed per gram of tissue at 240 to 370 kBq, iv after 15 mins; format: ADME, organism-based; conditions: in vivo, 0.25 h
[21] = test system: Kidney; test: Biodistribution in S180 tumor-bearing KM mouse kidney assessed per gram of tissue at 240 to 370 kBq, iv after 60 mins; format: ADME, organism-based; conditions: in vivo, 1 h
[22] = test system: Blood; test: Biodistribution in S180 tumor-bearing KM mouse blood assessed per gram of tissue weight at 240 to 370 kBq, iv after 60 mins; format: ADME, organism-based; conditions: in vivo, 1 h
[23] = Ratio of drug level in S180 tumor to brain KM mouse at 240 to 370 kBq, iv after 60 mins; format: ADME, organism-based; conditions: in vivo, 1 h
[24] = Ratio of drug level in S180 tumor to muscleKM mouse at 240 to 370 kBq, iv after 120 mins; format: ADME, organism-based, KM; conditions: in vivo, 2 h
[25] = test system: Kidney; test: Biodistribution in S180 tumor-bearing KM mouse kidney assessed per gram of tissue at 240 to 370 kBq, iv after 30 mins; format: ADME, organism-based; conditions: in vivo, 0.5 h
[26] = test system: Heart; test: Biodistribution in S180 tumor-bearing KM mouse heart assessed per gram of tissue weight at 240 to 370 kBq, iv after 5 mins; format: ADME, organism-based; conditions: in vivo
[27] = test system: Lung; test: Biodistribution in S180 tumor-bearing KM mouse lung assessed per gram of tissue at 240 to 370 kBq, iv after 60 mins; format: ADME, organism-based; conditions: in vivo, 1 h
[28] = Biodistribution in S180 tumor present in KM mouse assessed per gram of tissue at 240 to 370 kBq, iv after 5 mins; format: ADME, organism-based, Neoplasm; conditions: in vivo
[29] = Ratio of drug level in S180 tumor to blood in KM mouse at 240 to 370 kBq, iv after 5mins; format: ADME, organism-based; conditions: tumour
[30] = test system: Brain; test: Biodistribution in S180 tumor-bearing KM mouse brain assessed per gram of tissue at 240 to 370 kBq, iv after 5 mins; format: ADME, organism-based; conditions: in vivo
[31] = test system: Lung; test: Biodistribution in S180 tumor-bearing KM mouse lung assessed per gram of tissue at 240 to 370 kBq, iv after 5 mins; format: ADME, organism-based; conditions: in vivo
[32] = Ratio of drug level in S180 tumor to muscleKM mouse at 240 to 370 kBq, iv after 30 mins; format: ADME, organism-based, KM; conditions: in vivo, 0.5 h
[33] = Biodistribution in S180 tumor present in KM mouse assessed per gram of tissue at 240 to 370 kBq, iv after 15 mins; format: ADME, organism-based, Neoplasm; conditions: in vivo, 0.25 h
[34] = test system: Spleen; test: Biodistribution in S180 tumor-bearing KM mouse spleen assessed per gram of tissue at 240 to 370 kBq, iv after 120 mins; format: ADME, organism-based; conditions: in vivo, 2 h
[35] = test system: Muscle tissue; test: Biodistribution in S180 tumor-bearing KM mouse muscle assessed per gram of tissue at 240 to 370 kBq, iv after 5 mins; format: ADME, organism-based; conditions: in vivo
[36] = test system: Lung; test: Biodistribution in S180 tumor-bearing KM mouse lung assessed per gram of tissue at 240 to 370 kBq, iv after 15 mins; format: ADME, organism-based; conditions: in vivo, 0.25 h
[37] = test system: Muscle tissue; test: Biodistribution in S180 tumor-bearing KM mouse muscle assessed per gram of tissue at 240 to 370 kBq, iv after 15 mins; format: ADME, organism-based; conditions: in vivo, 0.25 h
[38] = Biodistribution in S180 tumor present in KM mouse assessed per gram of tissue at 240 to 370 kBq, iv after 30 mins; format: ADME, organism-based, Neoplasm; conditions: in vivo, 0.5 h
[39] = test system: Heart; test: Biodistribution in S180 tumor-bearing KM mouse heart assessed per gram of tissue weight at 240 to 370 kBq, iv after 60 mins; format: ADME, organism-based; conditions: in vivo, 1 h
[40] = test system: Brain; test: Biodistribution in S180 tumor-bearing KM mouse brain assessed per gram of tissue at 240 to 370 kBq, iv after 30 mins; format: ADME, organism-based; conditions: in vivo, 0.5 h
[41] = Biodistribution in S180 tumor present in KM mouse assessed per gram of tissue at 240 to 370 kBq, iv after 120 mins; format: ADME, organism-based, Neoplasm; conditions: in vivo, 2 h
[42] = test system: Blood; test: Biodistribution in S180 tumor-bearing KM mouse blood assessed per gram of tissue weight at 240 to 370 kBq, iv after 5 mins; format: ADME, organism-based; conditions: in vivo
[43] = Ratio of drug level in S180 tumor to brain KM mouse at 240 to 370 kBq, iv after 15 mins; format: ADME, organism-based; conditions: in vivo, 0.25 h

OC[C@H]1O[C@@H](O)[C@H]([18F])[C@@H](O)[C@@H]1O [FLUDEOXYGLUCOSE-F18]
Drug uptake [1]: 0.52 %ID
tumor/blood ratio [2]: 15.8
tumor/brain ratio [3]: 0.53
Drug uptake [4]: 1.28 %ID
tumor/blood ratio [5]: 3.42
tumor/muscle ratio [6]: 1.37
tumor/blood ratio [7]: 19.5
Drug uptake [8]: 0.78 %ID
Drug uptake [9]: 1.07 %ID
Drug uptake [10]: 2.63 %ID
Drug uptake [11]: 2.5 %ID
Drug uptake [12]: 0.16 %ID
tumor/brain ratio [13]: 0.61
Drug uptake [14]: 0.23 %ID
Drug uptake [15]: 2.69 %ID
Drug uptake [16]: 0.64 %ID
Drug uptake [17]: 2.16 %ID
tumor/brain ratio [18]: 1.33
Drug uptake [19]: 0.2 %ID
Drug uptake [20]: 1.04 %ID
Drug uptake [21]: 0.54 %ID
Drug uptake [22]: 0.11 %ID
tumor/brain ratio [23]: 1.02
tumor/muscle ratio [24]: 2.2
Drug uptake [25]: 0.61 %ID
Drug uptake [26]: 2.6 %ID
Drug uptake [27]: 0.57 %ID
Drug uptake [28]: 1.27 %ID
tumor/blood ratio [29]: 1.17
Drug uptake [30]: 2.4 %ID
Drug uptake [31]: 1.52 %ID
tumor/muscle ratio [32]: 1.75
Drug uptake [33]: 1.56 %ID
Drug uptake [34]: 0.78 %ID
Drug uptake [35]: 1.56 %ID
Drug uptake [36]: 0.77 %ID
Drug uptake [37]: 1.14 %ID
Drug uptake [38]: 1.86 %ID
Drug uptake [39]: 3.24 %ID
Drug uptake [40]: 3.07 %ID
Drug uptake [41]: 1.7 %ID
Drug uptake [42]: 1.09 %ID
tumor/brain ratio [43]: 0.59

COC(=O)[C@@H](NC(=O)c1ccc([N+](=O)[O-])cc1[18F])C(C)C
Drug uptake [1]: 0.25 %ID
tumor/blood ratio [2]: 1.67
tumor/brain ratio [3]: 2.79
Drug uptake [4]: 0.12 %ID
tumor/blood ratio [5]: 0.94
tumor/muscle ratio [6]: 1.48
tumor/blood ratio [7]: 3.44
Drug uptake [8]: 0.58 %ID
Drug uptake [9]: 0.82 %ID
Drug uptake [10]: 0.6 %ID
Drug uptake [11]: 0.6 %ID
Drug uptake [12]: 0.68 %ID
tumor/brain ratio [13]: 7.06
Drug uptake [14]: 3.66 %ID
Drug uptake [15]: 0.4 %ID
Drug uptake [16]: 1.31 %ID
Drug uptake [17]: 0.95 %ID
tumor/brain ratio [18]: 2.61
Drug uptake [19]: 0.14 %ID
Drug uptake [20]: 11.28 %ID
Drug uptake [21]: 0.35 %ID
Drug uptake [22]: 0.28 %ID
tumor/brain ratio [23]: 5.61
tumor/muscle ratio [24]: 0.54
Drug uptake [25]: 3.8 %ID
Drug uptake [26]: 1.35 %ID
Drug uptake [27]: 0.31 %ID
Drug uptake [28]: 2.78 %ID
tumor/blood ratio [29]: 0.9
Drug uptake [30]: 0.99 %ID
Drug uptake [31]: 5.49 %ID
tumor/muscle ratio [32]: 2.41
Drug uptake [33]: 2.06 %ID
Drug uptake [34]: 0.05 %ID
Drug uptake [35]: 1.43 %ID
Drug uptake [36]: 2.57 %ID
Drug uptake [37]: 1.39 %ID
Drug uptake [38]: 1.97 %ID
Drug uptake [39]: 0.19 %ID
Drug uptake [40]: 0.28 %ID
Drug uptake [41]: 0.31 %ID
Drug uptake [42]: 3.09 %ID
tumor/brain ratio [43]: 3.42

CC(C)[C@H](NC(=O)c1ccc([N+](=O)[O-])cc1[18F])C(=O)O
Drug uptake [1]: 0.57 %ID
tumor/blood ratio [2]: 1.3
tumor/brain ratio [3]: 9.38
Drug uptake [4]: 0.01 %ID
tumor/blood ratio [5]: 0.72
tumor/muscle ratio [6]: 1.95
tumor/blood ratio [7]: 1.83
Drug uptake [8]: 0.12 %ID
Drug uptake [9]: 0.21 %ID
Drug uptake [10]: 0.09 %ID
Drug uptake [11]: 0.72 %ID
Drug uptake [12]: 0.24 %ID
tumor/brain ratio [13]: 13.3
Drug uptake [14]: 1.59 %ID
Drug uptake [15]: 0.29 %ID
Drug uptake [16]: 1.38 %ID
Drug uptake [17]: 0.27 %ID
tumor/brain ratio [18]: 6.9
Drug uptake [19]: 0.5 %ID
Drug uptake [20]: 5.19 %ID
Drug uptake [21]: 0.45 %ID
Drug uptake [22]: 0.15 %ID
tumor/brain ratio [23]: 9.99
tumor/muscle ratio [24]: 0.66
Drug uptake [25]: 1.36 %ID
Drug uptake [26]: 1.07 %ID
Drug uptake [27]: 1.14 %ID
Drug uptake [28]: 1.37 %ID
tumor/blood ratio [29]: 0.56
Drug uptake [30]: 0.15 %ID
Drug uptake [31]: 5.04 %ID
tumor/muscle ratio [32]: 2.62
Drug uptake [33]: 0.91 %ID
Drug uptake [34]: 0.16 %ID
Drug uptake [35]: 0.99 %ID
Drug uptake [36]: 2.01 %ID
Drug uptake [37]: 0.47 %ID
Drug uptake [38]: 0.56 %ID
Drug uptake [39]: 0.11 %ID
Drug uptake [40]: 0.04 %ID
Drug uptake [41]: 0.08 %ID
Drug uptake [42]: 2.43 %ID
tumor/brain ratio [43]: 10.4
